# Key:
# Assay type in all cases: cell-based
# [1] = test system: SK-MEL-28; assay: SRB colorimetric cell growth inhibition assay, SK-MEL-28; conditions: Homo sapiens, SK-MEL-28, MEL-28; for GI50: GI=growth inhibition, read-out: GI50 MEL-28; for CC50: cell killing (cytotoxic effect), read-out: LC50 MEL-28; for IC (TGI): total growth inhibition (cytostatic effect), read-out: TGI MEL-28
# Outline: (§1)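 Human tumour cells continuously exposed to compound in 96-well culture; growth and viability quantified colorimetrically by sulforhodamine B staining. Mean ± SD from triplicate wells; GI (growth inhibition), TGI (total growth inhibition, cytostatic) and LC (cell killing, cytotoxic) parameters derived.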
# [2] = test system: HeLa-APL; assay: SRB colorimetric cell growth inhibition assay, HeLa-APL (aplidine resistant); conditions: Homo sapiens, HELA-APL; for GI50: GI=growth inhibition, read-out: GI50 HELA-APL; for CC50: cell killing (cytotoxic effect), read-out: LC50 HELA-APL; for IC (TGI): total growth inhibition (cytostatic effect), read-out: TGI HELA-APL
# Outline: as §1
# [3] = test system: IGROV-ET; assay: SRB colorimetric cell growth inhibition assay, IGROV-ET (ET-743 resistant); conditions: Homo sapiens, IGROV-ET; for GI50: GI=growth inhibition, read-out: GI50 IGROV-ET; for CC50: cell killing (cytotoxic effect), read-out: LC50 IGROV-ET; for IC (TGI): total growth inhibition (cytostatic effect), read-out: TGI IGROV-ET
# Outline: as §1
# [4] = test system: LNCaP; assay: SRB colorimetric cell growth inhibition assay, LNCaP; conditions: Homo sapiens, LNCaP, LN-caP; for GI50: GI=growth inhibition, read-out: GI50 LN-caP; for CC50: cell killing (cytotoxic effect), read-out: LC50 LN-caP; for IC (TGI): total growth inhibition (cytostatic effect), read-out: TGI LN-caP
# Outline: as §1
# [5] = test system: A-549; assay: SRB colorimetric cell growth inhibition assay, A-549; conditions: Homo sapiens, A549, A-549; for GI50: GI=growth inhibition, read-out: GI50 A-549; for CC50: cell killing (cytotoxic effect), read-out: LC50 A-549; for IC (TGI): total growth inhibition (cytostatic effect), read-out: TGI A-549
# Outline: as §1
# [6] = test system: IGROV; assay: SRB colorimetric cell growth inhibition assay, IGROV; conditions: Homo sapiens, IGROV; for GI50: GI=growth inhibition, read-out: GI50 IGROV; for CC50: cell killing (cytotoxic effect), read-out: LC50 IGROV; for IC (TGI): total growth inhibition (cytostatic effect), read-out: TGI IGROV
# Outline: as §1
# [7] = test system: K-562; assay: SRB colorimetric cell growth inhibition assay, K-562; conditions: Homo sapiens, K562, K-562; for GI50: GI=growth inhibition, read-out: GI50 K-562; for CC50: cell killing (cytotoxic effect), read-out: LC50 K-562; for IC (TGI): total growth inhibition (cytostatic effect), read-out: TGI K-562
# Outline: as §1
# [8] = test system: HeLa; assay: SRB colorimetric cell growth inhibition assay, HeLa; conditions: Homo sapiens, HeLa; for GI50: GI=growth inhibition, read-out: GI50 HELA; for CC50: cell killing (cytotoxic effect), read-out: LC50 HELA; for IC (TGI): total growth inhibition (cytostatic effect), read-out: TGI HELA
# Outline: as §1
# [9] = test system: PANC-1; assay: SRB colorimetric cell growth inhibition assay, PANC-1; conditions: Homo sapiens, PANC-1, PANC-1; for GI50: GI=growth inhibition, read-out: GI50 PANC-1; for CC50: cell killing (cytotoxic effect), read-out: LC50 PANC-1; for IC (TGI): total growth inhibition (cytostatic effect), read-out: TGI PANC-1
# Outline: as §1
# [10] = test system: HT-29; assay: SRB colorimetric cell growth inhibition assay, HT-29; conditions: Homo sapiens, HT-29, HT-29; for GI50: GI=growth inhibition, read-out: GI50 HT-29; for CC50: cell killing (cytotoxic effect), read-out: LC50 HT-29; for IC (TGI): total growth inhibition (cytostatic effect), read-out: TGI HT-29
# Outline: as §1
# [11] = test system: SK-BR-3; assay: SRB colorimetric cell growth inhibition assay, SK-BR-3; conditions: Homo sapiens, SK-BR-3, SK-BR-3; for GI50: GI=growth inhibition, read-out: GI50 SK-BR-3; for CC50: cell killing (cytotoxic effect), read-out: LC50 SK-BR-3; for IC (TGI): total growth inhibition (cytostatic effect), read-out: TGI SK-BR-3
# Outline: as §1
# [12] = test system: LoVo-Dox; assay: SRB colorimetric cell growth inhibition assay, LoVo-Dox (MDR); conditions: Homo sapiens, LOVO-DOX; for GI50: GI=growth inhibition, read-out: GI50 LOVO-DOX; for CC50: cell killing (cytotoxic effect), read-out: LC50 LOVO-DOX; for IC (TGI): total growth inhibition (cytostatic effect), read-out: TGI LOVO-DOX
# Outline: as §1
# [13] = test system: LoVo; assay: SRB colorimetric cell growth inhibition assay, LoVo; conditions: Homo sapiens, LoVo; for GI50: GI=growth inhibition, read-out: GI50 LOVO; for CC50: cell killing (cytotoxic effect), read-out: LC50 LOVO; for IC (TGI): total growth inhibition (cytostatic effect), read-out: TGI LOVO
# Outline: as §1
# [14] = test system: DU-145; assay: SRB colorimetric cell growth inhibition assay, DU-145; conditions: Homo sapiens, DU-145, DU-145; for GI50: GI=growth inhibition, read-out: GI50 DU-145; for CC50: cell killing (cytotoxic effect), read-out: LC50 DU-145; for IC (TGI): total growth inhibition (cytostatic effect), read-out: TGI DU-145
# Outline: as §1
smiles,measurement,setting,value
COc1cc(-c2c3c4cc(OC)c(OC(=O)[C@H](C)N)cc4oc(=O)c3n3ccc4cc(OC(=O)[C@H](C)N)c(OC)cc4c23)ccc1OC(=O)[C@H](C)N [Compound 199],GI50,[1],32.6 nM
same,CC50,[1],7040 nM
same,IC (TGI),[1],151 nM
same,GI50,[2],71.8 nM
same,CC50,[2],574 nM
same,IC (TGI),[2],242 nM
same,GI50,[3],31.3 nM
same,CC50,[3],12200 nM
same,IC (TGI),[3],159 nM
same,GI50,[4],15.8 nM
same,CC50,[4],392 nM
same,IC (TGI),[4],89.2 nM
same,GI50,[5],60.6 nM
same,CC50,[5],12200 nM
same,IC (TGI),[5],1330 nM
same,GI50,[6],18.9 nM
same,CC50,[6],873 nM
same,IC (TGI),[6],96.2 nM
same,GI50,[7],11.2 nM
same,CC50,[7],281 nM
same,IC (TGI),[7],55.5 nM
same,GI50,[8],29.9 nM
same,CC50,[8],651 nM
same,IC (TGI),[8],199 nM
same,GI50,[9],36.9 nM
same,CC50,[9],8080 nM
same,IC (TGI),[9],276 nM
same,GI50,[10],2140 nM
same,CC50,[10],12200 nM
same,IC (TGI),[10],6710 nM
same,GI50,[11],46.6 nM
same,CC50,[11],8280 nM
same,IC (TGI),[11],97.4 nM
same,GI50,[12],73.7 nM
same,CC50,[12],12200 nM
same,IC (TGI),[12],499 nM
same,GI50,[13],128 nM
same,CC50,[13],879 nM
same,IC (TGI),[13],335 nM
same,GI50,[14],3.73 nM
same,CC50,[14],37.2 nM
same,IC (TGI),[14],9.93 nM
COc1cc(-c2c3c4cc(OC)c(OC(=O)[C@@H](N)Cc5ccccc5)cc4oc(=O)c3n3ccc4cc(OC(=O)[C@@H](N)Cc5ccccc5)c(OC)cc4c23)ccc1OC(=O)[C@@H](N)Cc1ccccc1 [Compound 204],GI50,[1],26.8 nM
same,CC50,[1],7140 nM
same,IC (TGI),[1],243 nM
same,GI50,[2],88.8 nM
same,CC50,[2],594 nM
same,IC (TGI),[2],235 nM
same,GI50,[3],18 nM
same,CC50,[3],9520 nM
same,IC (TGI),[3],109 nM
same,GI50,[4],79 nM
same,CC50,[4],597 nM
same,IC (TGI),[4],229 nM
same,GI50,[5],31.1 nM
same,CC50,[5],9520 nM
same,IC (TGI),[5],1000 nM
same,GI50,[6],23.8 nM
same,CC50,[6],526 nM
same,IC (TGI),[6],113 nM
same,GI50,[7],7.48 nM
same,CC50,[7],596 nM
same,IC (TGI),[7],203 nM
same,GI50,[8],36.9 nM
same,CC50,[8],452 nM
same,IC (TGI),[8],172 nM
same,GI50,[9],44.7 nM
same,CC50,[9],392 nM
same,IC (TGI),[9],171 nM
same,GI50,[10],1400 nM
same,CC50,[10],9520 nM
same,IC (TGI),[10],3800 nM
same,GI50,[11],151 nM
same,CC50,[11],1090 nM
same,IC (TGI),[11],390 nM
same,GI50,[12],160 nM
same,CC50,[12],9520 nM
same,IC (TGI),[12],6340 nM
same,GI50,[13],113 nM
same,CC50,[13],463 nM
same,IC (TGI),[13],228 nM
same,GI50,[14],5.63 nM
same,CC50,[14],44.7 nM
same,IC (TGI),[14],17.4 nM
COc1cc(-c2c3c4cc(OC)c(OC(=O)C[C@H](N)C(C)C)cc4oc(=O)c3n3ccc4cc(OC(=O)C[C@H](N)C(C)C)c(OC)cc4c23)ccc1OC(=O)C[C@H](N)C(C)C [Compound 206],GI50,[1],44 nM
same,CC50,[1],1040 nM
same,IC (TGI),[1],169 nM
same,GI50,[2],83.4 nM
same,CC50,[2],2820 nM
same,IC (TGI),[2],523 nM
same,GI50,[3],29.7 nM
same,CC50,[3],589 nM
same,IC (TGI),[3],190 nM
same,GI50,[4],75.2 nM
same,CC50,[4],3330 nM
same,IC (TGI),[4],475 nM
same,GI50,[5],55.8 nM
same,CC50,[5],2770 nM
same,IC (TGI),[5],410 nM
same,GI50,[6],52.7 nM
same,CC50,[6],589 nM
same,IC (TGI),[6],194 nM
same,GI50,[7],31.1 nM
same,CC50,[7],4230 nM
same,IC (TGI),[7],1110 nM
same,GI50,[8],50.5 nM
same,CC50,[8],1930 nM
same,IC (TGI),[8],330 nM
same,GI50,[9],137 nM
same,CC50,[9],6250 nM
same,IC (TGI),[9],1270 nM
same,GI50,[10],1320 nM
same,CC50,[10],10500 nM
same,IC (TGI),[10],10500 nM
same,GI50,[11],70.1 nM
same,CC50,[11],2890 nM
same,IC (TGI),[11],451 nM
same,GI50,[12],294 nM
same,CC50,[12],6370 nM
same,IC (TGI),[12],1010 nM
same,GI50,[13],167 nM
same,CC50,[13],660 nM
same,IC (TGI),[13],331 nM
same,GI50,[14],21.8 nM
same,CC50,[14],72.5 nM
same,IC (TGI),[14],39.9 nM

# Reference: US7396837B2, “Antitumoral analogs of lamellarins” (Pharma Mar, S.A.U., priority 2002, dated 2008)
